Tested on: 616215-338-R-J1-PDC tumor spheroids, viability
Test: Anticancer human tumor 616215-338-R-J1-PDC patient-derived colon adenocarcinoma cell line growth inhibition [GQUAD]
Conditions: spheroids with HUVEC and MSC; for IC50: curve of first compound; for viability, T/C: stronger effect = lower value; active = viability on the fitted dose curve at most 10% of control; inactive = the rest
In short: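 Multi-cell-type spheroids of tumor cells with HUVEC and mesenchymal stem cells, treated with drug combinations. Concentrations descend in half-log steps from near clinical Cmax, or from 10 microM where Cmax is unknown; viability read-out.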

[1] = second compound 0.0316 µM, first compound 0.0316 µM
[2] = second compound 0.0316 µM, first compound 0.1 µM
[3] = second compound 0.0316 µM, first compound 0.316 µM
[4] = second compound 0.0316 µM, first compound 1 µM
[5] = second compound 0.0316 µM, first compound 3.16 µM
[6] = second compound 0.0316 µM, first compound 10 µM
[7] = second compound 0.1 µM, first compound 0.0316 µM
[8] = second compound 0.1 µM, first compound 0.1 µM
[9] = second compound 0.1 µM, first compound 0.316 µM
[10] = second compound 0.1 µM, first compound 1 µM
[11] = second compound 0.1 µM, first compound 3.16 µM
[12] = second compound 0.1 µM, first compound 10 µM
[13] = second compound 0.316 µM, first compound 0.0316 µM
[14] = second compound 0.316 µM, first compound 0.1 µM
[15] = second compound 0.316 µM, first compound 0.316 µM
[16] = second compound 0.316 µM, first compound 1 µM
[17] = second compound 0.316 µM, first compound 3.16 µM
[18] = second compound 0.316 µM, first compound 10 µM
[19] = second compound 1 µM, first compound 0.0316 µM
[20] = second compound 1 µM, first compound 0.1 µM
[21] = second compound 1 µM, first compound 0.316 µM
[22] = second compound 1 µM, first compound 1 µM
[23] = second compound 1 µM, first compound 3.16 µM
[24] = second compound 1 µM, first compound 10 µM
[25] = second compound 3.16 µM, first compound 0.0316 µM
[26] = second compound 3.16 µM, first compound 0.1 µM
[27] = second compound 3.16 µM, first compound 0.316 µM
[28] = second compound 3.16 µM, first compound 1 µM
[29] = second compound 3.16 µM, first compound 3.16 µM
[30] = second compound 3.16 µM, first compound 10 µM
[31] = second compound 10 µM, first compound 0.0316 µM
[32] = second compound 10 µM, first compound 0.1 µM
[33] = second compound 10 µM, first compound 0.316 µM
[34] = second compound 10 µM, first compound 1 µM
[35] = second compound 10 µM, first compound 3.16 µM
[36] = second compound 10 µM, first compound 10 µM
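Note: spheroids exposed to agents for 7 days before readout.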
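Throughout, for viability, T/C: percent viability relative to DMSO vehicle control wells taken as 100%.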

C=CCn1c(=O)c2cnc(Nc3ccc(N4CCN(C)CC4)cc3)nc2n1-c1cccc(C(C)(C)O)n1 + CN(C)c1ccc(Nc2c3ccc(NC(=O)CCN4CCCC4)cc3nc3cc(NC(=O)CCN4CCCC4)ccc23)cc1
344 nM: IC50 (second compound 0.0316 µM)
347 nM: IC50 (second compound 0.316 µM)
inactive: viability, T/C [1] 108% | viability, T/C [2] 100% | viability, T/C [3] 50.6% | viability, T/C [4] 23% | viability, T/C [5] 12.6% | viability, T/C [6] 11.5% | viability, T/C [7] 107% | viability, T/C [8] 109% | viability, T/C [9] 46.9% | viability, T/C [10] 23.5% | viability, T/C [11] 13.4% | viability, T/C [12] 12% | viability, T/C [13] 105% | viability, T/C [14] 107% | viability, T/C [15] 52.2% | viability, T/C [16] 23.3% | viability, T/C [17] 13.1% | viability, T/C [18] 14.7% | viability, T/C [19] 98.2% | viability, T/C [20] 99.5% | viability, T/C [21] 44.1% | viability, T/C [22] 24.4% | viability, T/C [23] 13.7% | viability, T/C [24] 14.3% | viability, T/C [25] 100% | viability, T/C [26] 96.9% | viability, T/C [27] 46.4% | viability, T/C [28] 26% | viability, T/C [29] 14.5% | viability, T/C [30] 10.6% | viability, T/C [31] 87.9% | viability, T/C [32] 90.3% | viability, T/C [33] 49% | viability, T/C [34] 19.9%
281 nM: IC50 (second compound 1 µM)
300 nM: IC50 (second compound 0.1 µM)
active: viability, T/C [35] 11.9% | viability, T/C [36] 3.42%
308 nM: IC50 (second compound 3.16 µM)
335 nM: IC50 (second compound 10 µM)

CC(C)(O)C1CCC(Nc2ccc3ncc(-c4cccc(C(F)(F)F)c4)n3n2)CC1 (centres undefined) + CN(C)c1ccc(Nc2c3ccc(NC(=O)CCN4CCCC4)cc3nc3cc(NC(=O)CCN4CCCC4)ccc23)cc1
640 nM: IC50 (second compound 0.316 µM)
active: viability, T/C [5] 0.97% | viability, T/C [6] 1.74% | viability, T/C [11] 1.16% | viability, T/C [12] 1.76% | viability, T/C [17] 1.32% | viability, T/C [18] 2.9% | viability, T/C [23] 2.03% | viability, T/C [24] 3.51% | viability, T/C [29] 3.83% | viability, T/C [30] 1.76% | viability, T/C [35] 0.42% | viability, T/C [36] 0.5%
726 nM: IC50 (second compound 0.1 µM)
inactive: viability, T/C [1] 111% | viability, T/C [2] 106% | viability, T/C [3] 101% | viability, T/C [4] 17% | viability, T/C [7] 96.3% | viability, T/C [8] 104% | viability, T/C [9] 94.7% | viability, T/C [10] 32.7% | viability, T/C [13] 106% | viability, T/C [14] 101% | viability, T/C [15] 91.2% | viability, T/C [16] 24.1% | viability, T/C [19] 93.6% | viability, T/C [20] 102% | viability, T/C [21] 103% | viability, T/C [22] 29.2% | viability, T/C [25] 93.1% | viability, T/C [26] 92.8% | viability, T/C [27] 86.3% | viability, T/C [28] 18.4% | viability, T/C [31] 89.9% | viability, T/C [32] 97.8% | viability, T/C [33] 63.8% | viability, T/C [34] 15.6%
447 nM: IC50 (second compound 10 µM)
711 nM: IC50 (second compound 1 µM)
634 nM: IC50 (second compound 0.0316 µM)
585 nM: IC50 (second compound 3.16 µM)

Source: PubChem BioAssay AID2060493 (Molecular Pharmacology Branch, DTP, NCI, 2025)
